Measurements from paper PMC8111499, “GW117: A novel serotonin (5‐HT2C) receptor antagonist and melatonin (MT1/MT2) receptor agonist with potential antidepressant‐like activity in rodents” (CNS Neuroscience & Therapeutics, 2021).

Key:
[1] = biological target: T1, 5‐HT2C receptor from rat hippocampal membranes (Rattus norvegicus, UniProt P08909); experiment: [35S]‐GTPγS and [3H]PIP assays, blockade of 5‐HT activation; assay type: biochemical; settings: 10 nM 5‐HT
T1 construct: 5‐HT2C receptor from rat hippocampal membranes (C‐D); from tissue; host or cells: rat hippocampus
T1 sequence (P08909 33-460): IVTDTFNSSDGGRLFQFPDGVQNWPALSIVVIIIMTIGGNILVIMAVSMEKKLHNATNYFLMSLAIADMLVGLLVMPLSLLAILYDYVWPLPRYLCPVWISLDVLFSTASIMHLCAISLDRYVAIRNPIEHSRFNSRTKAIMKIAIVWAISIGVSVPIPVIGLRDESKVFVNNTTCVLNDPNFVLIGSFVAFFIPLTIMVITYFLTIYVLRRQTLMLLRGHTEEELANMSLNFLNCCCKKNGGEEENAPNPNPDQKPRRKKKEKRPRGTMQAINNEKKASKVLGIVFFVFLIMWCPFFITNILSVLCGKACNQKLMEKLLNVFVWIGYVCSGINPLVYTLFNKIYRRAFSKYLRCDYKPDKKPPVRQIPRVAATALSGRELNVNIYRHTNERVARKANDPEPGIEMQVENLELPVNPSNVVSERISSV
Method: This experiment was mentioned earlier. ^27 In short, HEK293 cell membrane stably expressing human 5‐HT2C receptors or rat hippocampal tissue membrane or MT1/MT2 receptors was re‐suspended in buffer (50 mmol/L Tris, 100 mmol/L NaCl, 5 mmol/L MgCl2·6H2O, 0.1 mmol/L EDTA‐Na2·6H2O, 0.2 mmol/L EGTA, pH 7.4) and incubated with the test compound (100 μM GDP, 0.2 nM [^35S]‐GTP, or [^3H]PIP) for 60 min at 28℃. At the end of the experiment, Whatman GF/C filters pre‐soaked with distilled water were used for rapid filtration followed by washing with 5 ml of ice‐cold Tris buffer. Determination of non‐specific binding in the presence of GTPγS and radioactivity was measured by liquid scintillation counting. Calculation of the concentration produces a half‐maximal effect (EC50) and the maximal increase above the baseline value.

[2] = system: CUS rats; experiment: Sucrose preference test in CUS rats; assay type: in vivo; settings: chronic, 5, 10, 20, and 40 mg/kg, vs. CUS‐vehicle
Method: (§1) In order to further examine the antidepressant effects of GW117, chronic unpredictable stress (CUS) model was utilized; the methods were as described before. ^29 , ^31 After 1 week of training, rats underwent sucrose training of 48 h. After training, a sucrose baseline test was performed. […] Gastric gavage was given 1 h before the stress (08:00–09:00). Except for the non‐stressed group, all rats were stimulated by a series of stressors. stress methods included the following: fast on food and water (24 h), moisture cage (150 g sawdust bedding in 200 ml water), overnight illumination, low‐intensity strobe illumination (100 flashes/min), forced swimming (5 min at 10℃), white noise (110 dB), tail pinch (1 cm from tail root, 6 min), 45℃ cage tilt, and restraint (1–2 h). Stressors need to be used continuously and randomly. Non‐stressed rats received free food and water, but were required to fast for 14 h before sucrose preference test. After 4 weeks of stress, the sucrose preference test (SPT) (on day 25), open field test (OFT) (on day 28), and novelty‐suppressed feeding (NSF) test (on day 29) were carried out.
The SPT was performed as previously reported. ^32 Rats were trained to administer sucrose water solution after 48 h fasting and water deprivation. […] Sucrose and water intake were measured, and sucrose preference was calculated: SP =sucrose intake ×100%/ (sucrose intake +water intake). […]

[3] = system: CUS rats; experiment: Novelty‐suppressed feeding test in the CUS model; assay type: in vivo; settings: chronic, 5, 10, 20 and 40 mg/kg, vs. vehicle‐stressed rats
Method: as §1, with “out. […]” for “out.”

[4] = system: mice; experiment: Learned helplessness paradigm in mice; assay type: in vivo, ICR mice; settings: sub‐chronic, fourth day after inescapable shock training, vs stress
Method: For 4 consecutive days, mice were putted into the shuttle box device (40 × 10 × 13 cm), the device was splited into two compartments, and mice could free access. In the IS group, each mouse received 360 inescapable shocks (current intensity 0.30 mA, duration 2 s, 3‐13 s variable interval, about 1 h) over four consecutive training days. Animals in the NIS group underwent the same handling without receiving the foot shocks. 10 trials were conducted on mice to screen helpless, each of which includes conditioned stimulation period (3‐s lamp on), non‐conditioned stimulation period (3‐s lamp +shock), and interval period (without any stimulus, 25 s). […] The EF values were balanced for each group in the experiment. Using Graphic State software (Coulbourn Instruments Inc.,) recorded the number of escape failures and the latency to escape.

blockade of activation of [35S]‐GTPγS binding and [3H]PIP released by 5‐HT [1]: dose‐dependently blocked
SMILES: [2H]C([2H])([2H])Oc1cc2c(CCNC(C)=O)cccc2cc1Cl [GW117]
sucrose preference [2]: markedly increased sucrose preference
latency to begin eating [3]: significantly reduced the latency to begin eating
number of failures to escape ([4]; 40 mg/kg): significantly decreased the number of failures to escape
escape latency ([4]; 20 and 40 mg/kg): decreased the escape latency
